Data published in patent US8349310B2, “Attractant compositions and method for attracting biting insects” (Bedoukian Research, Inc., priority 2007, dated 2013).

Tests used:
Culex quinquefasciatus = conditions: electrophysiology test, reported in a published article; cited from earlier work
mosquitoes [1] = test: Field trap catch, Hock Model 1012 traps: CO2 plus 1,5Z-octadien-3-ol vs CO2 alone (Example 1); format: in vivo
Source text: (§1) Although, as stated above, this invention may be employed with any suitable trap or system, the invention has been tested and employed in a trap or system as described hereinafter. Mosquito traps Model 1012 manufactured by John W. Hock Company in Gainesville, Fla. were used in these tests. The traps use a stream of CO2 directed in the vicinity of a collection bag, with a fan used to blow mosquitoes into the bag. The light supplied to the trap was turned off. The traps were spaced 65-70 feet apart at the edge of a wetland in Danbury, Conn., at least 25 feet from any buildings. The 1,5-octadien-3-ol component was incorporated into a wax lure of the type manufactured by BioSensory, Inc. and placed near a stream of CO2 which was being released at a rate of approximately 150 ml/minute. The traps were operated from approximately 4:00 PM until 9:00 AM the next day. Daytime temperatures were approximately 70-75° F. during the trials.
To establish a baseline control the Hock traps with just CO2, and no added 1,5-octadien-3-ol component, were operated in the two areas on three days. The trap in area 1 (Trap A) caught 32 of the mosquitoes caught, and the trap in area 2 (Trap B) caught 23 of the mosquitoes caught. […]

mosquitoes [2] = test: Field trap catch, Hock traps: r-1-octen-3-ol with or without r-1,5Z-octadien-3-ol (Example 2); format: in vivo; conditions: for mosquitoes caught: Traps A and B, twelve day test period, attractant in 2 ml diethyl phthalate, 0.04 g r-1,5Z-octadien-3-ol tested together with 0.2 g r-1-octen-3-ol, r-1-octen-3-ol alone at 2 g
Source text: as §1
This test was conducted over a twelve-day period. The test was conducted to determine if 1,5-octadien-3-ol increases the trap catch of mosquitoes when added to a trap already containing the known attractant r-1-octen-3-ol. Traps A in area 1 and B in area 2, as described in Example 1, were employed. Both traps A and B were tested with (1) 0.2 g 100% r-1-octen-3-ol+0.04 g r-1,5Z-octadien-3-ol. in 2 ml diethyl phthalate, and (2) with 2 g 100% r-1-octen-3-ol in 2 ml diethyl phthalate (i.e., with no 1,5Z-octadien-3-ol present). Over the twelve day test period the traps with the 1,5z-octadien-3-ol present caught 239 mosquitoes and the traps without the 1,5Z-octadien-3-ol present caught 221 mosquitoes. Thus, the presence of the 1,5Z-octadien-3-ol increased the catch of mosquitoes by 8%.

In the case of `C=CC(O)CC=CCC` (stereo not drawn) [1,5-octadien-3-ol], the “ability to attract mosquitoes” value (Culex quinquefasciatus) is listed as “confirmed”.

In the case of `C=CC(O)C/C=C\CC` (stereo not drawn) [1,5Z-octadien-3-ol], the mosquitoes caught (mosquitoes [1]; Trap A (area 1), compound in trap plus 150 ml/minute CO2, four day test period, Trap B with CO2 only caught 35) is reported as 84 mosquitoes and the “catch ratio Trap A to Trap B” value (mosquitoes [1]; Trap A with compound plus CO2 vs Trap B with CO2 only, four days, baseline catch ratio 1.4 with CO2 only in both traps) is reported as 2.4.

In the case of `C=C[C@H](O)C/C=C\CC` [r-1,5Z-octadien-3-ol], the mosquitoes caught (mosquitoes [2]) is reported as 239 mosquitoes and the “increase of the catch of mosquitoes” value (mosquitoes [2]; r-1-octen-3-ol plus r-1,5Z-octadien-3-ol vs r-1-octen-3-ol alone, twelve days) is reported as 8%.

Work on `C=C[C@H](O)CCCCC` [r-1-octen-3-ol, reference compound] yielded a mosquitoes caught (mosquitoes [2]) of 221 mosquitoes.
